Laboratory results from patent US9669000B2, “Pharmaceutical compositions comprising lignans and their derivatives for treating hyperplastic diseases” (Universität Innsbruck, priority 2008, dated 2017).
Where two headings read alike, the source gives them in different places.

How the values were obtained:
[1] = tested on: human vascular smooth muscle cells (SMCs); assay: XTT cell proliferation assay, smooth muscle cells; assay type: cell-based; conditions: for IC50: XTT assay after 72 h, mean of three independent experiments, read-out: IC50, SMC proliferation-inhibitory activity
Text: Human umbilical vein endothelial cells (HUVECs) were isolated from umbilical cords (kindly donated by the Gynecology and Obstetrics Department, Innsbruck Medical University) by enzymatic detachment using collagenase, as previously described; see Bernhard, FASEB J 17(15), 2302-4 (2003). Human umbilical vein smooth muscle cells (SMCs) were isolated from the same umbilical cords according to Chamley-Campbell, Physiol Rev 59(1), 1-61 (1979). SMCs were routinely passaged in 0.2% gelatine-coated (Sigma, Steinheim, Germany) polystyrene culture flasks (Becton Dickinson, Meylan Cedex, France) in Medium 231 (Cascade Biologics, Paisley, UK). The isolation and analysis of human umbilical cord ECs and SMCs has been approved by the Ethics Committee of the Innsbruck Medical University.
(§1) Cell proliferation was measured by the XTT cell proliferation assay (Biomol, Hamburg, Germany) as described by the manufacturer. The XTT assay is based on the ability of metabolic active cells to reduce the tetrazolium salt XTT to orange coloured compounds of formazan. The dye formed is water soluble and the dye intensity can be read at a given wavelength with a spectrophotometer. The intensity of the dye is proportional to the number of metabolic active cells. In addition to the XTT assay all proliferation-experiments were also evaluated by counting cells in a coulter counter.
as §1, with “As described above (Example 1) cell” for “Cell”, “cells.” for “cells. In addition to the XTT assay all proliferation-experiments were also evaluated by counting cells in a coulter counter.”

SMCs [2] = conditions: associated with upregulation of p21/WAF1; cited from earlier work
SMCs [3] = conditions: caspase-dependent manner; cited from earlier work
VCAM-1 [4] = conditions: ECs; cited from earlier work
[5] = tested on: primary human vascular endothelial cells (ECs); assay: XTT cell proliferation assay, endothelial cells; assay type: cell-based
Text: (§2) Values shown are mean values from a representative experiment performed in triplicates.

[6] = tested on: human vascular smooth muscle cells (SMCs); assay: Nuclear DNA content (cell cycle) analysis, SMCs; assay type: cell-based; conditions: 24 hours of incubation
Description: In order to investigate the effect of leoligin on the cellular level, isolated primary human vascular smooth muscle cells (SMCs) were incubated with the indicated concentrations of leoligin for the indicated times. […] Values shown are mean values from a representative experiment performed in triplicates.
(§3) For detection and/or quantification of cell death, forward/sideward light scattering analysis, the AnnexinV-propidium iodide method, and staining of nuclear DNA content (cell cycle analyses) were used as described; see Bernhard FASEB J 13(14), 1991-2001 (1999).

[7] = tested on: primary human vascular endothelial cells (ECs); assay: Metabolic protein labelling with 35S-methionine/cysteine in ECs; assay type: cell-based
Description: (§4) Primary human vascular endothelial cells (ECs) were incubated with the indicated concentrations of leoligin for the indicated times. […] Values shown are mean values from a representative experiment performed in triplicates. […] Values shown are mean values from three independent experiments+/−S.D. The impact of leoligin on TNFalpha-induced surface expression of VCAM-1, ICAM-1, and E-selectin (E-Sel) is shown in the three diagrams in FIG. 4C. Data shown are mean fluorescence intensities (MFI) of representative experiments. […] After protein preparation, total cellular proteins were separated on polyacrylamide gels, gel were dried and analysed by exposure to x-ray films.
Metabolic labelling with ^35S-methionine/cysteine was performed as previously described (Bernhard (2001), loc. cit.).

[8] = tested on: primary human vascular endothelial cells (ECs); assay: Cell viability by annexin V/propidium iodide method and FACS, ECs; assay type: cell-based; conditions: 48 hours
Description: as §4, §3

[9] = tested on: human vascular smooth muscle cells (SMCs); assay: Cell death by AnnexinV-propidium iodide method and FACS, SMCs; assay type: cell-based; conditions: after 48 hour
Description: (§5) In order to investigate the effect of leoligin on the cellular level, isolated primary human vascular smooth muscle cells (SMCs) were incubated with the indicated concentrations of leoligin for the indicated times. […] Values shown are mean values from a representative experiment performed in triplicates. […] Values shown are mean values from three independent experiments+/−S.D. The histogram blots in FIG. 3C show the results from a DNA content analysis of control-treated or leoligin-treated SMCs after 24 hours of incubation (upper row, left histogram . . . solvent control; upper row, right histogram . . . leoligin).
as §3

VCAM-1 [10] = assay: FACS analysis of TNFalpha-induced surface adhesion molecule expression on ECs; assay type: cell-based, human
Text: as §2

p27/KIP = assay: Western blot of p27/KIP in SMCs; assay type: cell-based, human; conditions: SMCs incubated 24 hours; shift from 27 kD to 58 kD signal
Description: as §5
Western blotting was performed as previously described; see Bernhard, Cell Death Differ 8(10), 1014-21 (2001). Primary antibodies used were anti-p27/KIP-1 antibody (clone 57; BD Transduction Laboratories).

[11] = tested on: venous bypass graft intimal hyperplasia; assay: Mouse model for vein graft disease (vena cava interposed into carotid artery); assay type: in vivo
Description: Before wound closure after the transplantation, a peradventitial depot of 100 μl of 0.9% NaCl (control) or 100 μl of 100 μM leoligin in 0.9% NaCl were applied. After 4 weeks conduits were removed and subjected to morphometric analyses and to immunohistochemistry. FIG. 5B: the upper two images show a Elastica van Giesson stain of sections of the venous conduits. White arrows indicate neointimal thickness which was analysed by morphometry (see FIG. 5A). Central images display a staining for the endothelial cell CD31/PECAM-1 antigen (brown, black arrows) combined with a hematoxilin stain. […] The abbreviations “Lu” and “Li” stand for the full terms “lumen” and “liver”, respectively.
In the applied mouse model the vena cava of a donor mouse was interposed into the carotid artery of a recipient mouse. After transplantation and prior to wound closure a 100 μl depot of 0.9% NaCl (control group) or 100 μM leoligin in 0.9% NaCl (leoligin group) was placed around the adventitia of the vein graft in the recipient mouse. 4 weeks after the intervention mice were sacrificed and the interposed venae cavae were harvested for analyses. […] For details on the surgical procedure see Schachner, Eur J Cardiothorac Surg 30(3), 451-63 (2006); Schachner, Heart Surg Forum 9(1), E515-E517 (2006). Animal experiments were approved by the Commission for Animal Testing Affairs of the Austrian Ministry for Science and Research.
(§6) Following fixation in 4% paraformaldehyde and dehydration of tissues from organ culture and mouse experimentation, tissues were embedded in paraffin (venae cavae from the in vivo experiments were embedded into mouse liver prior to fixation) and sections were prepared. Immunohistochemistry was performed with the Accustain Elastica Stain (HT25) kit (Sigma-Aldrich, USA) or the En Vision+System-HRP (DAB) (DakoCytomation, Denmark) according to the manufacturers instructions. Primary antibodies used were anti-p27/KIP-1 antibody (clone 57; BD Transduction Laboratories), and anti-CD31/PECAM-1 antibody (clone JC70A, Dako Cytomation). Image analyses were performed using the Image J software of the National Institute of Health (USA).

human saphenous veins = assay: Human saphenous vein organ culture model of intimal hyperplasia; conditions: added freshly every second day over 2 weeks
Description: as §6

[12] = tested on: intimal hyperplasia after balloon injury; conditions: in vivo; cited from earlier work
[13] = 100 μl of 100 μM leoligin, 4 weeks

With `C/C=C(/C)C(=O)OC[C@H]1[C@@H](Cc2cc(OC)c(OC)c(OC)c2)CO[C@@H]1c1cc(OC)c(OC)c(OC)c1` [5,5′-dimethoxy-leoligin] the IC50 ([1]; Homo sapiens) was 48.6 µM.
Compound `C/C=C(/C)C(=O)OC[C@H]1[C@@H](Cc2ccc(O)c(OC)c2)CO[C@@H]1c1cc(OC)c(OC)c(OC)c1` [5-methoxy-leoligin] has an IC50 ([1]; Homo sapiens) of 45.9 µM.
`C/C=C(/C)C(=O)OC[C@H]1[C@@H](Cc2ccc(OC)c(OC)c2)CO[C@@H]1c1cc(OC)c(OC)c(OC)c1` [5-methoxy-leoligin] showed an IC50 [1] of 45.9 µM.
For `C=CCc1ccc(O)c(-c2ccc(O)c(CC=C)c2)c1` [Honokiol, honokiol], the “cell cycle in SMCs” value (SMCs [2]) is listed as “arrest in the G1 phase of the cell cycle”.
For `C=CCc1ccc(O)c(-c2cc(CC=C)ccc2O)c1` [Magnolol, magnolol], the “cell death in SMCs” value (SMCs [3]) is given as “induce cell death in SMCs” and the “TNFalpha-mediated VCAM-1 expression” value (VCAM-1 [4]) is given as “inhibit TNFalpha-mediated VCAM-1 expression”.
For `COc1cc(C[C@H]2CO[C@H](c3ccc(O)c(OC)c3)[C@H]2CO)ccc1O` [lariciresinol, reference compound], the IC50 ([1]; Homo sapiens) was greater than 100 µM.
For `C/C=C(/C)C(=O)OC[C@H]1[C@@H](Cc2ccc(OC)c(OC)c2)CO[C@@H]1c1ccc(OC)c(OC)c1` [leoligin], the “proliferation of ECs” value [5] was “inhibited the proliferation of ECs”, the “cell cycle distribution (nuclear DNA content)” value [6] was “massive accumulation of cells in the G1-phase” and the “protein synthesis in ECs” value [7] was “does not block protein synthesis”. For the same compound, the “toxic or cell death-inducing effect on ECs” value [8] was “no toxic or cell death-inducing effect”, the “cell death (apoptosis and necrosis) in SMCs” value [9] was “only a marginal increase in cell death” and the “TNFalpha-mediated surface expression of VCAM-1” value (VCAM-1 [10]) was “inhibited TNFalpha-mediated surface expression of VCAM-1”. For the same compound, the IC50 ([1]; Homo sapiens) was 54.5 µM, the “SMC proliferation (XTT assay, cell counting)” value ([1]; result in words) was “significant SMC proliferation inhibitory effect” and the “p27/KIP protein (Western blot)” value (p27/KIP) was “complete change in the appearance of p27/KIP protein”. For the same compound, the “endothelial layer (CD31 staining) of conduits” value [11, 13] was “intact”, the “neointimal thickness of vein grafts” value [11, 13] was “significantly reduced neointimal thickness” and the “p27/KIP staining of graft sections” value ([11]; four weeks after the application) was “stained positive for p27/KIP”. The “animals with no blood flow due to thromboses after 4 weeks” value ([11]; of 7 animals per group (3 in control)) was 2, the “intimal hyperplasia in vivo” value ([11]; periadvential reservoir 100 μl of 100 μM leoligin in 0.9% NaCl, 4 weeks) was “potently inhibited intimal hyperplasia in vivo” and the “intimal hyperplasia of saphenous veins in organ culture” value (human saphenous veins; 5 μM leoligin, p=0.003) was “completely inhibited intimal hyperplasia”. For the same compound, the “pre-existing intimal hyperplasia of saphenous veins in organ culture” value (human saphenous veins; 50 μM leoligin, p<0.001) was “even reversed pre-existing intimal hyperplasia”.
In the case of `COc1cc([C@@H]2c3cc4c(cc3[C@H](O)[C@H]3COC(=O)[C@@H]23)OCO4)cc(OC)c1OC` [picropodophyllin], the “intimal hyperplasia after balloon injury” value [12] is listed as “inhibits intimal hyperplasia after balloon injury in vivo”.
